In patent publication US7238795B2, “Nucleic acid binding compounds containing pyrazolo[3,4-d]pyrimidine analogues of purin-2,6-diamine and their uses” (Roche Molecular Systems, Inc., priority 2000, dated 2007):
Several values for one entry are separate records, joined by “and”; a condition that tells them apart may be missing. Equal values may be shown once. Read-outs that look alike come from different tables or passages of the source.

Legend:
[1] = Half-life of the N-glycosylic bond in HCl, followed UV-spectrophotometrically and by HPLC; type: physicochemical; details: 25°; for half-life: read-out: Half-life τ
Procedure: Next, the half-lives of the N-glycosylic bonds of compounds 2a,b in acidic medium were measured and compared with that of compound 1. […]

[2] = Deprotection (alkaline hydrolysis) of base-protected nucleosides in aqueous ammonia, HPLC monitoring; details: for time of complete deprotection: conc. ammonia, 40°
[3] = test system: complementary oligodeoxyribonucleotide strand (antiparallel duplex); assay: Tm values and thermodynamic data of antiparallel DNA-DNA duplexes (UV melting curves, Meltwin 3.0); type: binding
[4] = biological target: T1, adenosine deaminase (ADA) (Homo sapiens, UniProt P00813); assay: Deamination by adenosine deaminase, followed UV-spectrophotometrically; type: biochemical; details: compared with purine nucleoside 1; even at high enzyme concentrations
T1 sequence (P00813 1-363): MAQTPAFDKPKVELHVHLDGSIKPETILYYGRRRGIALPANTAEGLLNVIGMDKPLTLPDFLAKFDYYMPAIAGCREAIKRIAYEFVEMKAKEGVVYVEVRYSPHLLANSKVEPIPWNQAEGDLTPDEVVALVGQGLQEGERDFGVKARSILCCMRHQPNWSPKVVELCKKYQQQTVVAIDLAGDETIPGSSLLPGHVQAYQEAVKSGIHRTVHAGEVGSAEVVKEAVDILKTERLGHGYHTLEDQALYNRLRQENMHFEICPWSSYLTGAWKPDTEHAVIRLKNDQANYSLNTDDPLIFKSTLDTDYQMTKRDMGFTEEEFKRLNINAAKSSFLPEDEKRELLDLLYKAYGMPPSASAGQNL
From the text: The reaction was followed UV-spectrophoto-metrically (FIG. 1a).
The time-dependent spectra show two isosbestic points (λ=234 nm and 267 nm) indicating the conversion of the starting material into only one reaction product. The deamination of 2a occurs much slower than that of the purine nucleoside 1.

[5] = buffer
[6] = test system: complementary oligodeoxyribonucleotide strand (antiparallel duplex); details: data published so far; n^2Ad instead of dA; cited from earlier work
[7] = 25% aq. NH3, 40°, HPLC-monitoring

What does the source list for `Nc1nc(N)c2c(I)nn([C@H]3C[C@H](O)[C@@H](CO)O3)c2n1` [2c, 1-(2-Deoxy-β-D-erythro-pentofuranosyl)-3-iodo-1H-pyrazolo[3,4-d]-pyrimidin-4,6-diamine]?
Half-life τ ([1]; Table 8, 0.5 N HCl, stable = within 3 h): stable^b); half-life ([1]; Table 8, 2 N HCl): 61 min

For `O=C(Nc1nc(NC(=O)c2ccccc2)c2c(I)nn([C@H]3C[C@H](O)[C@@H](CO)O3)c2n1)c1ccccc1` [13b, 1-[2-Deoxy-β-D-erythro-pentofuranosyl]-4,6-dibenzamido-3-iodo-1H-pyrazolo[3,4-d]-pyrimidine], which “time for complete deprotection” value ([2]; 25% aq. NH3, 40° C., HPLC-monitoring at 260 nm) is on record?
Its value is 450 min.

With `CC(C)C(=O)Nc1nc(N)c2c(Br)nn([C@H]3C[C@H](O)[C@@H](CO)O3)c2n1` [compound 14, 4-Amino-3-bromo-1-(2-deoxy-β-D-erythro-pentofuranosyl)-6-[(2-methylpropanoyl)amino]-1H-pyrazolo[3,4-d]pyrimidine] as the compound, how does the “half-life of alkaline hydrolysis” value ([2]; 25% aq. NH3 at 40°) read?
The value was 20.5 min.

Which “complete removal of the two benzoyl groups” value ([2]; 25% aq. NH3, 40°, HPLC monitoring) does the source give for `O=C(Nc1nc(NC(=O)c2ccccc2)c2cnn([C@H]3C[C@H](O)[C@@H](CO)O3)c2n1)c1ccccc1` [5b, N^4,N^6-Bis(benzoyl)-1-[2-deoxy-β-D-erythro-pentofuranosyl]-1H-pyrazolo[3,4-d]-pyrimidin-4,6-diamine] here?
Its value is 8 to 9 h.

Which “Tm increase (stabilization) per modified residue” value ([3]; text Example 2, standard duplex 102•103) does the source give for `Nc1nc(N)c2c(Br)nn([C@H]3C[C@H](O)[C@@H](CO)O3)c2n1` [2b, 3-Bromo-1-[2-deoxy-β-D-erythro-pentofuranosyl]-1H-pyrazolo[3,4-d]-pyrimidin-4,6-diamine] here?
The value was 4.5 ° and 4-5 °.

What about the “Tm-value of duplex 102•103 with six residues replacing dA” value ([3]; text b259) of the same compound?
Its value is 75 °.

And the “deamination by adenosine deaminase” value [4]?
Its value is “not deaminated”.

What about the “Half-life τ” value ([1]; 0.5 N HCl, Stable = within 4 h) of the same compound?
Its value is “Stable^b)”.

And the half-life ([1]; 2 N HCl)?
The half-life was 87 min.

Which “removal of the first pac-group” value [2, 7] does the source give for `O=C(COc1ccccc1)Nc1nc(NC(=O)COc2ccccc2)c2cnn([C@H]3C[C@H](O)[C@@H](CO)O3)c2n1` [5a, N^4,N^6-Bis(phenoxyacetyl)-1-[2-deoxy-β-D-erythro-pentofuranosyl]-1H-pyrazolo[3,4-d]-pyrimidin-4,6-diamine] here?
The value was no more than 5 min.

And the “removal of the second pac-group” value [2, 7]?
Its value is 20 min.

What about the complete deprotection ([2]; 25% aq. NH3 at r.t.) of the same compound?
Its complete deprotection is “less than one hour”.

For `CC(C)C(=O)Nc1nc(NC(=O)C(C)C)c2c(Br)nn([C@H]3C[C@H](O)[C@@H](CO)O3)c2n1` [13a, 3-Bromo-1-(2-deoxy-β-D-erythro-pentofuranosyl)-4,6-[(2-methylpropanoyl)amino]-1H-pyrazolo[3,4-d]pyrimidine], which “half-life of alkaline hydrolysis” value [5] is on record?
Its value is 4.5 min.

With `CCCCN(C=Nc1nc(N=CN(CCCC)CCCC)c2c(Br)nn([C@H]3C[C@H](O)[C@@H](CO)O3)c2n1)CCCC` [8b, N^4,N^6-Bis((di-n-butylamino)methylene)-3-bromo-1-[2-deoxy-β-D-erythro-pentofuranosyl]-1H-pyrazolo[3,4-d]-pyrimidin-4,6-diamine] as the compound, how does the “time of complete deprotection” value ([2]; HPLC-monitoring at 260 nm) read?
Its value is 450 min.

Which results are given for `Nc1nc(N)c2ncn([C@H]3C[C@H](O)[C@@H](CO)O3)c2n1` [compound 1, 2-amino-2′-deoxyadenosine, reference compound]?
Tm-increase of DNA duplex [6]: 1-2 °C; half-life ([1]; 0.5 N HCl, Stable = within 4 h): 6 min

With `CCCCN(C=Nc1nc(N=CN(CCCC)CCCC)c2cnn([C@H]3C[C@H](O)[C@@H](CO)O3)c2n1)CCCC` [8a, N^4,N^6-Bis((di-n-butylamino)methylene)-1-[2-deoxy-β-D-erythro-pentofuranosyl]-1H-pyrazolo[3,4-d]-pyrimidin-4,6-diamine] as the compound, how does the “time of complete deprotection” value ([2]; HPLC-monitoring at 260 nm) read?
Its value is 440 min.
